Nine compounds from patent publication US11311538B2, “Compositions and methods for targeting cancers” (YALE UNIVERSITY, priority 2018, dated 2022) can be followed below.

Test [1] concerns UOK 268. Briefly: Neutral comet assay in UOK 268 HLRCC cells. Format: cell-based, human. The following applies: for levels of DNA DSBs after exogenous metabolite: FH-deficient UOK 268 cells, 24 h (FIG. 3H).
Test [2] relates to KDM4A and KDM4B. Briefly: Western blot of histone trimethylation (KDM4A/B activity) in YUNK1 cells. To be noted: increasing doses, 24 h (FIGS. 7E-7F). Format: cell-based, human. The method, then:
Western Blot analyses. Western blot analysis of protein levels was conducted by loading 30 μg of whole cell lysate onto a 4-20% polyacrylamide gel. Total protein was transferred to a nitrocellulose membrane. After blocking with 5% milk, membranes were incubated with primary antibodies. Antibodies used were: Rabbit monoclonal anti-Fumarase (D9C5,Cell Signaling Technologies) 1:1000 in 5% BSA, mouse monoclonal anti-SDHB (21A11AE7, Abcam) 1:1000 in % 5 milk, mouse monoclonal anti-Vinculin (SPM227, Abcam) 1:1000 in 5% milk, rabbit polyclonal anti-Histone 3 Lysine 36 trimethyl (9050, Abcam) 1:500 in 5% BSA, anti-Histone 3 Lysine 9 trimethyl (D4W1U, Cell Signaling Technologies) 1:1000 in 5% BSA, mouse monoclonal anti-Beta Actin (60008, Protein Tech) 1:5000 5% milk, rabbit Polyclonal anti-Histone H3 (ab1791, Abcam 1:5000 5% BSA), rabbit Polyclonal anti-PAR (4336-BPC-100, Trevigen) 1:5000 5% BSA, mouse monoclonal anti-GAPDH (60004 Protein Tech) 1:5000 5% milk, mouse monoclonal anti-BRCA2 (ab1, Millipore, 1:1000 5% Milk), mouse monoclonal anti-BRCA1 (D-9, Santa Cruz, 1:200 5% milk), mouse monoclonal anti-RAD51(14B4 Novus bio, 1:1000 5% milk). Patient sample blots were reprobed. Reprobed blots were stripped with Restore Plus Stripping Buffer (Thermo Fischer) and re-blocked with 5% milk prior to reprobing. Blots were tested to ensure all residual detection reagents were removed. Dual Color Precision Plus Protein standard was used as a molecular weight standard for western blots. Cell Culture. YUNK1 cells were generated in culture from uninvolved cortical renal tissue from a patient undergoing a radical nephrectomy for kidney cancer. […] YUNK1 was immortalized with a lentiviral vector containing SV40 Large T antigen (Addgene plasmid #22298). Lentiviral production was performed using HEK293FT (ATCC) using plasmids pMDLg/pRRE, pRSV-Rev, pCMV-VSG-G (Addgene #12251, 12253, and 8454). YUNK1 cells were maintained in DMEM+10% FBS+1% Pen/Strep. HEK293FT cells (ATCC) were maintained in DMEM+10% FBS+1% Pen/Strep. After lentiviral infections with TRIPZ-shRNA or GIPZ lentiviruses, cells were maintained in DMEM+10% FBS+1% Pen/Strep+2 μg/mL Puromycin. For dox inducible shRNAs, expression was induced with 2 μg/mL doxycycline. Doxycycline induced knockdown was monitored by western blot as well as by RFP fluorescence from the internal and dox-inducible reporter on the TRIPZ construct. U2OS DR-GFP cells were maintained in DMEM+10% FBS+1% Pen/Strep. UOK 262 and UOK 268 HLRCC cells are previously described in Yang, et al., 2010, Cancer Gent. Cytogent. 196:45-55; Yang, et al., 205, Cancer Genet. 205:377-390. They were obtained courtesy of W. M. Linehan and were maintained in DMEM+10% FBS+1% Pen/Strep+1 mM Sodium-Pyruvate. NCCFH1 cells were maintained in DMEM+10% FBS+1% Pen/Strep+1 mM Sodium-Pyruvate. […]
(A western blot detects proteins with antibodies after separation by electrophoresis.)

For test [3], the system named is UOK 262. Put plainly: Neutral comet assay in UOK 262 HLRCC cells. Format: cell-based, human. The following applies: for levels of DNA DSBs after exogenous metabolite: FH-deficient UOK 262 cells, 24 h (FIG. 3H).
Test [4] relates to YUNK1 cells. Put plainly: Immunofluorescence foci assay in YUNK1 cells. The class given is cell-based, human. The method, then:
(§1) Western Blot analyses. Western blot analysis of protein levels was conducted by loading 30 μg of whole cell lysate onto a 4-20% polyacrylamide gel. Total protein was transferred to a nitrocellulose membrane. After blocking with 5% milk, membranes were incubated with primary antibodies. Antibodies used were: Rabbit monoclonal anti-Fumarase (D9C5,Cell Signaling Technologies) 1:1000 in 5% BSA, mouse monoclonal anti-SDHB (21A11AE7, Abcam) 1:1000 in % 5 milk, mouse monoclonal anti-Vinculin (SPM227, Abcam) 1:1000 in 5% milk, rabbit polyclonal anti-Histone 3 Lysine 36 trimethyl (9050, Abcam) 1:500 in 5% BSA, anti-Histone 3 Lysine 9 trimethyl (D4W1U, Cell Signaling Technologies) 1:1000 in 5% BSA, mouse monoclonal anti-Beta Actin (60008, Protein Tech) 1:5000 5% milk, rabbit Polyclonal anti-Histone H3 (ab1791, Abcam 1:5000 5% BSA), rabbit Polyclonal anti-PAR (4336-BPC-100, Trevigen) 1:5000 5% BSA, mouse monoclonal anti-GAPDH (60004 Protein Tech) 1:5000 5% milk, mouse monoclonal anti-BRCA2 (ab1, Millipore, 1:1000 5% Milk), mouse monoclonal anti-BRCA1 (D-9, Santa Cruz, 1:200 5% milk), mouse monoclonal anti-RAD51(14B4 Novus bio, 1:1000 5% milk). Patient sample blots were reprobed. […] Doxycycline induced knockdown was monitored by western blot as well as by RFP fluorescence from the internal and dox-inducible reporter on the TRIPZ construct. […]

In test [5] the test system is HEK293FT and YUNK1 cells. Put plainly: Clonogenic survival assay, PARP inhibitors, knockdown or metabolite-treated cells. Format: cell-based, human.
The test system of test [6] is U2OS DR-GFP cells. Put plainly: U2OS DR-GFP HR assay. The class given is cell-based. To be noted: for suppression of HR, DR-GFP assay: metabolite added to cell culture medium, 24 h (FIG. 3A).
In test [7] the test system is HEK293FT cells. Briefly: Immunofluorescence foci assay in HEK293FT cells. The class given is cell-based, human. The following applies: metabolite added to culture media (FIGS. 3E-3G). The protocol:
as §1

In test [8] the test system is HEK293FT shSDHB / shFH / shCTRL cells. Briefly: Clonogenic survival assay, DNA damaging agents, SDHB or FH knockdown cells. Format: cell-based, human. To be noted: SDHB or FH knockdown cells compared to control shRNA. The protocol: as §1
In test [9] the test system is UOK 262. Put plainly: Clonogenic survival assay in cell lines of renal origin. Format: cell-based, human. To be noted: FIG. 4C (BMN-673), FIG. 8J (mitomycin C).

As to `O=C(O)/C=C/C(=O)O` [fumarate], the “levels of DNA DSBs after exogenous metabolite” value in test [1] and in test [3] was “no further effect” each time. In addition, in test [2], the H3K9me3 levels result is recorded as “dose-dependent increase”. The H3L36me3 levels entry in test [2] is given as “dose-dependent increase”.

For `O=C(O)CCC(=O)O` [succinate], the γH2AX foci entry in test [4] (24 h (FIGS. 6I-6J)) and in test [7] was “Increases” in each case. Further, the p53BP1 foci result in test [4] (24 h (FIGS. 6K-6L)) and in test [7] was “Increases” in each case. Besides, the “levels of DNA DSBs after exogenous metabolite” value in test [1] and in [3] was “no further effect” in each case. Moreover, the H3K9me3 levels entry in [2] is on record as “dose-dependent increase”. In test [2], the H3L36me3 levels entry is recorded as “dose-dependent increase”. For the same compound, the “induction of sensitivity to PARP inhibitors olaparib and BMN-673 by exogenous metabolite” value in test [5] (metabolite added to culture media (2 mM succinate; 30 or 60 μM dimethyl-fumarate)) is “induced dramatic sensitivity”. Further, in test [6], the “suppression of HR, DR-GFP assay” value was “sufficient to suppress HR in a dose-dependent manner”.

`COC(=O)CCC(=O)C(=O)OC` [αKG, dimethyl-α-ketoglutarate]: the “rescue of elevated DSB phenotype (comet assay)” value is reported as “rescued the phenotype” in test [1] (FH deficient UOK 268 cells, 2 mM dimethyl-α-ketoglutarate (FIG. 3J)) and “rescued the phenotype” in test [3] (FH deficient UOK 262 cells, 2 mM dimethyl-α-ketoglutarate (FIG. 3J)). In addition, the “rescue of HR defect induced by succinate or fumarate, DR-GFP assay” value in test [6] (co-treatment with dimethyl-succinate or dimethyl-fumarate (FIG. 3L)) was “rescued”.

`O=C(c1cc(Cc2n[nH]c(=O)c3ccccc23)ccc1F)N1CCN(C(=O)C2CC2)CC1` [olaparib]: the “sensitivity to the PARP inhibitor, clonogenic survival” value in test [5] (knockdown of SDHB and FH or exogenous dimethyl-fumarate or succinate (FIGS. 4A-4B, 8E-8I)) is listed as “dramatic sensitivity”.

As for `CO[C@@]12[C@H](COC(N)=O)C3=C(C(=O)C(C)=C(N)C3=O)N1C[C@@H]1N[C@@H]12` [mitomycin C], in [8], the “clonogenic survival in response to DNA damaging agent” value is recorded as “substantially reduced survival”. The “sensitivity of UOK 262 relative to FH-proficient cell lines of renal origin, clonogenic survival” value in test [9] was “markedly more sensitive”.

`COC(=O)CCC(=O)OC` [dimethyl-succinate]: in [6], the “suppression of HR, DR-GFP assay” value is on record as “sufficient to suppress HR in a dose-dependent manner”.

Regarding `CCOC(=O)/C=C/C(=O)O` [monoethyl-fumarate], in [6], the “suppression of HR, DR-GFP assay” value is listed as “sufficient to suppress HR in a dose-dependent manner”.

For `CCOC(=O)CCC(=O)O` [monoethyl-succinate], in test [6], the “suppression of HR, DR-GFP assay” value was “sufficient to suppress HR in a dose-dependent manner”.

In the case of `N.N.[Cl][Pt][Cl]` [cisplatin], the “clonogenic survival in response to DNA damaging agent” value in test [8] is “substantially reduced survival”.
